Laboratory results as given in paper PMC12518693, “Potent Fluorescent Probe for Target‐Engagement Studies of Allosteric Pyruvate Kinase Modulators” (Angewandte Chemie (International Ed. in English), 2025).

Assays:
HEK293 cells = test: Photostability in HEK293 cells under continuous 488 nm irradiation; type: cell-based; conditions: HEK293, 1 µM, 2 h, continuous 488 nm scanning 10 min
Experimental: Photostability of tracer IV was subsequently evaluated by treating HEK293 cells with the tracer (1 µM) for 2 h, followed by continuous scanning using 488 nm laser excitation for 10 min.
Figure S7. Photobleaching curve of compound IV (1 µM) in HEK293 cells under continuous laser irradiation. HEK293 cells were exposed to continuous excitation at 488 nm for 10 minutes using the same imaging settings as applied throughout this study. Integrated fluorescence intensity was recorded over time from an identical region of interest (ROI) across the time-lapse images to assess photostability.

PKLNluc and PKLwt = test: Native PAGE in-gel fluorescence, PKLNluc and PKLwt; type: binding, human; conditions: IV 2.5 or 10 µM
Experimental: (§1) To study the interaction of IV with PKLNluc and its oligomers, native PAGE was performed (Figure 4). Recombinant PKLNluc was incubated for 2 h with IV (0.15–10 µM) or DMSO and loaded onto gels. […] Colloidal blue staining and western blotting with anti‐PKL antibodies confirmed the predominance and identity of the bands (Figure S11a,d). […] PKM2 and PKL exist in equilibrium between oligomeric states, with PKM2 mainly dimeric when unbound.^[ [18] ^] As oligomerization regulates PK function,^[ [11], [54] ^] PKLNluc oligomerization was compared to PKLwt and PKM2 (Figure 4b,c). […] Colloidal blue and anti‐PKM2 blots confirmed PKM2 was mostly monomeric, explaining the lack of binding (Figure S11).
Recombinant PKLNLuc (4 x 950 ng) was incubated for 1 hour at ambient temperature with different concentrations of compound IV in a total volume of 60 µL Tris-HCl buffer pH 7.4 (50 mM Tris, 100 mM KCl, 10 mM MgCl2, 0.05% Tween 20). PKM2 and PKL recombinants (2 x 950 ng) were also incubated for 1 hour at ambient temperature with different concentrations of the compound IV (0, 2.5 and 10 µM). […]
(§2) A ChemiDoc imager (Bio-Rad, Alexa 488 filter) was used for fluorescence detection of compound IV bound to the proteins. […] The images of the in-gel fluorescence and luminescence detection were superimposed. […]

PKM2 = PKM2 (Homo sapiens, UniProt P14618); test: Native PAGE in-gel fluorescence, PKM2; type: binding; set-up: made in house
Chain of PKM2 (P14618 whole entry): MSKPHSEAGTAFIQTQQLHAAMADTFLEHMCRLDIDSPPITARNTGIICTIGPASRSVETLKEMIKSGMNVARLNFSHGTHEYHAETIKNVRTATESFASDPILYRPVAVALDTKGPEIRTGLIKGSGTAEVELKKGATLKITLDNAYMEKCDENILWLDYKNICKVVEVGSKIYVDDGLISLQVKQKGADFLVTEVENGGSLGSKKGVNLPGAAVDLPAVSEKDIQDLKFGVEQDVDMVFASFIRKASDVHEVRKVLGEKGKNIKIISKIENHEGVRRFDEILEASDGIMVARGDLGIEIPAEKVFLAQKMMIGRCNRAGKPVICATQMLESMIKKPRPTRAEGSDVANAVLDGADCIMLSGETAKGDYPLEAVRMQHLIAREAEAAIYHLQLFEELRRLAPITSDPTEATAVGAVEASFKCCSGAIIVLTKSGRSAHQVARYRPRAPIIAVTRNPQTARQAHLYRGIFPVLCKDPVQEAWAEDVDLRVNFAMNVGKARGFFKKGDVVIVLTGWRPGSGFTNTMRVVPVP
Experimental: as §1
Given that FBP levels vary widely in cells,^[ [55], [56], [57] ^] and that it binds PKL with nanomolar affinity, ^[ [58] ^] IV binding to PKLwt was tested with and without FBP.
Recombinant PKLNLuc (4 x 950 ng) was incubated for 1 hour at ambient temperature with different concentrations of compound IV in a total volume of 60 µL Tris-HCl buffer pH 7.4 (50 mM Tris, 100 mM KCl, 10 mM MgCl2, 0.05% Tween 20). […]
as §2

PKLNluc [1] = molecular target: T1, PKLNluc (Homo sapiens, UniProt P30613); test: NanoBRET with recombinant PKLNluc; conditions: tracer IV 100 nM, 450/550 nm, ± mitapivat
T1 sequence (P30613 1-543 isoform P30613-2): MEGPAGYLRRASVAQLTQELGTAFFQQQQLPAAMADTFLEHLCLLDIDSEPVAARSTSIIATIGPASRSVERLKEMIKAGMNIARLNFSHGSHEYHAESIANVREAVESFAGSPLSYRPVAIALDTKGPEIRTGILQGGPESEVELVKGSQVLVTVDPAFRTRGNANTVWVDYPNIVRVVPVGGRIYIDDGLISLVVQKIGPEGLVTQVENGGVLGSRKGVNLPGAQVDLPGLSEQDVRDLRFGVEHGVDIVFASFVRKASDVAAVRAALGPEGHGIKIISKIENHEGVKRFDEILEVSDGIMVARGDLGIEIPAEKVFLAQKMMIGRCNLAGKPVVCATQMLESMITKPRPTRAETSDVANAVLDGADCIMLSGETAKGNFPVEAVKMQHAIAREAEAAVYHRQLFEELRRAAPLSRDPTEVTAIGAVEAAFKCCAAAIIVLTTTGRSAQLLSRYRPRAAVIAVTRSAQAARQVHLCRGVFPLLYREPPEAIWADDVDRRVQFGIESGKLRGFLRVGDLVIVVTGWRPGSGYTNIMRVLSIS
Experimental: Due to the low quantum yield of SBD‐containing IV (Table S1), we optimized the plate reader settings for the NanoBRET assay to maximize the signal‐to‐background (S/B) ratio. The fluorescence excitation spectrum of tracer IV overlapped with the emission band of PKLNluc (Figure 5a), prompting the screening of wavelength pairs within 400–600 nm.
The donor/acceptor wavelength pairs were recorded at 450/470 nm, 550/510 nm, 450/530 nm, 450/550 nm, 450/610 nm, 450/630 nm and 400/470 nm respectively. For each sample well, BRET ratios were calculated using the following formula:
Where AcceptorS is the luminescence intensity (FI) of the sample well at 550 nm, DonorS is the FI of the sample well at 450 nm, and AcceptorNT and DonorNT are the FI of the no-tracer control at 550 nm and 450 nm respectively.

PKLNluc [2] = molecular target: T1, PKLNluc; test: Live-cell NanoBRET assay in HEK293 cells; type: cell-based; set-up: host or cells: HEK293, transient transfection
Experimental: To investigate the intracellular interaction of tracer IV with PKLNluc, we prepared a mammalian expression construct, fusing Nluc to the N‐terminus of PKL. […] As a negative control for NanoBRET experiments, a construct expressing Nluc alone (without PKL) was also prepared.
Additionally, cell viability assays were conducted on cells transfected with either PKLNluc or Nluc plasmids and incubated with tracer IV (Figure S4b,c).
HEK293 cells were passed one day before transfection. The concentration of cells was adjusted to 2x10^5 cells/ml in Opti-MEM™ without phenol red (Invitrogen) supplemented with 1% FBS (Hyclone). Cells (4x10^6) were reversed transfected with 1 µg of PKLNluc plasmid or 1 µg Nluc plasmid and 9 µg of carrier DNA (Promega) using 30 µL of Fugene HD transfection reagent (Promega). […] Work solutions (100x) of tracer IV were prepared from DMSO stocks and further diluted to 20x concentrations with Tracer buffer (Promega). Twenty-five hours after transfection, the cells were treated with 5 µL/well of each of 20x concentrations of the tracer (final concentrations in the assay were in the range 0.001-1 µM, depending on the experiment). Thereafter, 10 µL of 10x solutions of competitors (diluted in Opti-MEM™ medium from stocks of 100x prepared in DMSO) were added to some sets of cells, while the other set received only Opti-MEM™ containing 1% DMSO. The cells were incubated for 2 h at 37°C (5% CO2). […] For each sample well, BRET ratios were calculated using the following formula:
BRET ratio mBU= AcceptorSDonorS-AcceptorNTDonorNT
Where AcceptorS is the luminescence intensity of the sample well at 550 nm, DonorS is the luminescence of the sample well at 450 nm, and AcceptorNT and DonorNT are the luminescence of the no-tracer control at 550 nm and 450 nm respectively.

- decrease of fluorescence intensity (HEK293 cells): approximately 6%
- in-gel fluorescence labeling of PKM2 (PKM2; IV 2.5 or 10 µM with FBP 10 µM, PKM2 tetrameric): no fluorescence
- in-gel fluorescence labeling of PKM2 (PKM2; IV 2.5 or 10 µM, without FBP): no fluorescence was detected
- BRET assay window (PKLNluc [1]): 39 mBU
- tracer concentration above which nonspecific binding signals emerged (PKLNluc [2]; HEK293, PKLNluc): exceeding 400 nM
- EC50 (PKLNluc [2]; HEK293 transfected with PKLNluc, 2 h 37 °C, displacement control (20 µM mitapivat) subtracted, read-out: EC50 (cell), tracer titration, specific BRET signal): 18.4 nM
Structure (SMILES): CN(C)c1ccc(S(=O)(=O)c2ccc3c(=O)n(Cc4cc[nH]n4)ncc3c2)c2nonc12 [Compound IV, 2-((1H-Pyrazol-3-yl)methyl)-6-((7-(dimethylamino)benzo[c][1,2,5]oxadiazol-4-yl)sulfonyl)phthalazin-1(2H)-one]
- in-gel fluorescence labeling of oligomers (PKLNluc and PKLwt): labeling only of the tetramers
- in-gel fluorescence labeling of oligomers (PKLNluc and PKLwt; listed as LumiPK): exclusively to the tetrameric form of PKL
